The text below walks through data of PubChem BioAssay (NCI).

Holding throughout (experiment): NCI anticancer screen, dose series, 48 h
Experiment [1] concerns A498 renal.
For experiment [2], the system named is A549 NSCLC.
Experiment [3] has as its system BT-549 breast.
Experiment [4] concerns CCRF-CEM leukemia.
Experiment [5] relates to HL-60(TB) leukemia.
The subject of experiment [6] is NCI/ADR-RES ovarian.
The test system of experiment [7] is OVCAR-8 ovarian.
For experiment [8], the system named is SK-MEL-2 melanoma.
The subject of experiment [9] is SW-620 colon.
Experiment [10] concerns UACC-257 melanoma.
Experiment [11] concerns T-47D breast.

The structures appear in SMILES notation.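 Test compounds were applied to cells in 96-well plates for 48 hours at 5 doses. GI50 = concentration required for 50% inhibition of growth. TGI: concentration producing complete growth inhibition.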

In the case of `COC(=O)C1(O)c2ccccc2N=C2C(=O)c3ccccc3N21` (stereo not drawn), the TGI in experiment [1], in [2], in experiment [3], in experiment [4], in experiment [5] and in [6] was more than 100 µM throughout. Besides, the TGI in [7], in experiment [8], in [9] and in [10] was more than 100 µM each time.
With `N#CS/C(Cl)=C(/C(Cl)=C(Cl)Cl)[N+](=O)[O-]`, the TGI in [1] was more than 100 µM; in experiment [2], more than 100 µM; in experiment [3], more than 100 µM; in experiment [4], more than 100 µM; in [5] it was more than 100 µM; in experiment [6] it was 98.1 µM. The TGI in experiment [7], in [9], in [11] and in [10] was more than 100 µM each time.
With `CCCCCc1c2nc(c(CCCCC)c3ccc([nH]3)c(CCCCC)c3ccc([nH]3)c(CCCCC)c3nc1C=C3)C=C2`, the TGI in experiment [2], in experiment [3], in [4], in experiment [5], in experiment [6] and in experiment [7] was more than 100 µM throughout. Besides, the TGI in experiment [8], in experiment [9], in experiment [11] and in [10] was more than 100 µM each time.
For the compound `CCCCCCCCCCCCCCCCP(=O)(O)OP(=O)(O)OCC1OC(n2cnc3c(N)ncnc32)C(O)C1O` (stereo not drawn), the TGI in experiment [2] was more than 100 µM; in experiment [3], more than 100 µM; in experiment [4] it was 97.4 µM; in [5], more than 100 µM; in [6], 98.6 µM; in [7] it was 43.9 µM. Also, the TGI in [8] was more than 100 µM; in [9], 88.1 µM; in experiment [11], more than 100 µM; in experiment [10], 60 µM.
In the case of `CCCNC(=S)/N=C\c1c(O)c2ccccc2oc1=O`, the TGI in experiment [1], in experiment [2], in [3], in [4], in experiment [5] and in experiment [6] was more than 100 µM in each case. Moreover, the TGI in experiment [7], in experiment [8], in experiment [9] and in experiment [10] was more than 100 µM each time.
`COC12C=CC(CC1)C1C(=O)c3c(C)c(C)n(C)c3C(=O)C12` (stereo not drawn): the TGI in [1], in [3], in [4], in [6], in experiment [7] and in experiment [8] was more than 100 µM each time. In addition, the TGI in experiment [9], in experiment [11] and in experiment [10] was more than 100 µM throughout.
Turning to `CC(=O)OCC1OC(O[C@@H]2c3c(O)c4c(c(O)c3C3=C(NN(c5ccc([N+](=O)[O-])cc5[N+](=O)[O-])[Se]3=O)[C@@]2(C)O)C(=O)c2ccccc2C4=O)C(OC(C)=O)C(OC(C)=O)C1OC(C)=O` (stereo partly drawn), the TGI came to 1.11 µM in experiment [1]; 2.07 µM in [2]; 4.23 µM in experiment [3]; 1.08 µM in [4]; 3.86 µM in experiment [6]; 0.562 µM in experiment [7]. The TGI in [8] came out at 0.615 µM; in [9], 0.339 µM; in [11] it was 1.46 µM; in [10], 1.49 µM.
As to `O=C1CCCc2cc3c(cc21)CCC3C(=O)O` (stereo not drawn), the TGI in experiment [2], in [3], in experiment [4], in [5], in [6] and in experiment [7] was more than 100 µM throughout. Also, the TGI in [8], in experiment [9], in experiment [11] and in experiment [10] was more than 100 µM in each case.
As to `C=C[C@H]1CN2CCc3c([nH]c4c([C@H]5CCCN5C)c(O)ccc34)[C@@H]2C[C@@H]1C[C@H]1c2[nH]c3ccccc3c2CCN1C`, the TGI is 3.08 µM in [2]; 3.72 µM in [3]; 2.11 µM in [4]; 0.564 µM in [5]; 3.38 µM in experiment [6]; 2.91 µM in experiment [7]. Besides, the TGI was 3.53 µM in experiment [8], 2.93 µM in experiment [9], 3.72 µM in experiment [11] and 3.54 µM in experiment [10]. In [5], the GI50 is 56.2 nM.
Take `CN(C)CCO/N=C1/C=C2CC[C@H]3[C@@H]4CC[C@H](O)[C@@]4(C)CC[C@@H]3[C@@]2(C)CC1`: the TGI was 33.7 µM in experiment [1]; more than 65.2 µM in experiment [2]; 8.27 µM in experiment [3]; more than 21.6 µM in experiment [4]; 17.1 µM in experiment [6]; 45.5 µM in [7]. Moreover, the TGI is 37.4 µM in [8], 36.1 µM in experiment [9], 97.9 µM in experiment [11] and 30.2 µM in experiment [10].
As to `O=C1CCC2SC1CCC2=O`, the TGI in experiment [1], in [2], in experiment [3], in [4], in experiment [5] and in [6] was more than 100 µM throughout. Moreover, the TGI in experiment [7], in [8], in experiment [9] and in experiment [10] was more than 100 µM each time.
Consider `Cc1ccccc1N(C)S(=O)(=O)c1ccccc1[N+](=O)[O-]`, for which the TGI in experiment [2], in experiment [3], in experiment [4], in experiment [5], in experiment [6] and in [7] was more than 100 µM in each case. For the same compound, the TGI in experiment [8], in [9], in experiment [11] and in [10] was more than 100 µM in each case.
`COc1cc(-c2coc3c(OC)c(OC4OC(CO)C(O)C(O)C4O)c(OC)cc3c2=O)cc(OC)c1C` (stereo not drawn): the TGI in experiment [2] was more than 55.6 µM; in experiment [3], 16.1 µM; in experiment [4], more than 41.7 µM; in experiment [5], more than 100 µM; in [6] it was 27.4 µM; in experiment [7] it was 25.3 µM. The TGI in experiment [8] is 41.1 µM; in experiment [9] it was more than 41.3 µM; in experiment [11], 45.1 µM; in [10] it was more than 31.6 µM.
With `Cc1c2c(n(CCc3ccccc3)c1C)NN=C(C#N)S2(=O)=O`, the TGI in experiment [2], in experiment [3], in experiment [6], in [7], in experiment [8] and in experiment [9] was more than 100 µM each time. Besides, the TGI in experiment [11] and in experiment [10] was more than 100 µM each time.
`CC(C)CCC[C@@H](C)C1CCC2[C@@H]3CCC4CC(CCC=C(c5cc(Cl)c(OC(=O)c6ccccc6)c(C(=O)O)c5)c5cc(Cl)c(OC(=O)c6ccccc6)c(C(=O)O)c5)CC[C@]4(C)C3CC[C@@]21C` (stereo partly drawn): the TGI in experiment [1], in experiment [2], in experiment [3], in [4], in [5] and in [6] was more than 100 µM each time. Also, the TGI in [7], in [8], in experiment [9] and in experiment [10] was more than 100 µM each time.
For the compound `C=C[C@@]1(C)CC(=O)[C@]2(O)[C@@]3(C)[C@@H](OC(C)=O)CCC(C)(C)[C@@H]3[C@H](OC(C)=O)[C@H](OC(C)=O)[C@@]2(C)O1`, the TGI in experiment [1], in [2], in experiment [3], in experiment [6], in experiment [7] and in [8] was more than 100 µM throughout. The TGI in experiment [9], in experiment [11] and in [10] was more than 100 µM in each case.
For the compound `C=CCOCn1ccc(=O)[nH]c1=O`, the TGI in experiment [1], in experiment [2], in experiment [3], in [4], in experiment [5] and in experiment [7] was more than 100 µM each time. Moreover, the TGI in experiment [9], in experiment [11] and in [10] was more than 100 µM throughout.
`O=c1cc(-c2cccc(OC(F)(F)F)c2)[nH]c2cc3c(cc12)OCO3`: the TGI in [1] is 7.75 µM; in experiment [2], more than 100 µM; in [3], 33.5 µM; in experiment [5], 0.0315 µM; in [6], 0.236 µM; in experiment [7], more than 52.2 µM. For the same compound, the TGI in [8] was 0.628 µM; in [9] it was more than 100 µM; in experiment [11] it was more than 100 µM; in [10], more than 100 µM.
For `Cc1cc(Cl)ccc1N=NC(=O)NNc1ccc(Cl)cc1C`, the TGI in [1] amounted to 21.8 µM; in experiment [2], 30.6 µM; in experiment [3] it was 32.2 µM; in experiment [4], 58.5 µM; in experiment [5] it was 45.8 µM; in [7] it was 27.2 µM. Further, the TGI in [8] was 28 µM; in experiment [9], 30.2 µM; in experiment [11], 26.6 µM; in experiment [10] it was 33.1 µM.
Turning to `Cc1sc2nc3n(c(=O)c2c1C)N=C(c1ccc(Cl)cc1)CS3`, the TGI in [1], in experiment [2], in experiment [3], in experiment [4], in experiment [5] and in experiment [6] was more than 100 µM throughout. In addition, the TGI in [7], in [9], in experiment [11] and in experiment [10] was more than 100 µM throughout.
For `CC(=O)O[C@H]1C(=O)[C@@]2(C)[C@H]([C@H](OC(=O)C3CCCCC3)[C@]3(O)C[C@H](OC(=O)[C@H](O)[C@@H](NC(=O)C4CCCCC4)C4CCCCC4)C(C)=C1C3(C)C)[C@]1(OC(C)=O)CO[C@@H]1C[C@@H]2O`, the TGI in experiment [1] worked out at 6.6 µM; in experiment [2] it was 20.9 µM; in experiment [3] it was 0.778 µM; in experiment [4], 8.78 µM; in experiment [6] it was 5.68 µM; in [7], 5.12 µM. For the same compound, the results for the TGI in [9], in [11] and in [10] were 25 µM, 3.4 µM and 4.24 µM, respectively.
On to `CC1(O)/C(=N/O)CC2CC1C2(C)C` (stereo not drawn), for which the TGI in experiment [2], in experiment [3], in experiment [4], in [5], in experiment [7] and in experiment [8] was more than 100 µM each time. Further, the TGI in [9], in [11] and in experiment [10] was more than 100 µM throughout.
In the case of `Cc1ccc(S(=O)(=O)N2CCCCN(S(=O)(=O)c3ccc(C)cc3)Cc3ccccc3OCCOCCOc3c4cccc3Cc3cccc5c3OCCOCCOc3ccccc3CN(S(=O)(=O)c3ccc(C)cc3)CCCN(S(=O)(=O)c3ccc(C)cc3)Cc3ccccc3OCCOCCOc3c(cccc3C4)Cc3cccc(c3OCCOCCOc3ccccc3C2)C5)cc1`, the TGI in [1], in experiment [2], in experiment [3], in [4], in [6] and in experiment [7] was more than 100 µM in each case. Further, the TGI in experiment [8], in [9], in experiment [11] and in experiment [10] was more than 100 µM throughout.
With `O=[N+]([O-])C(=C(N1CCOCC1)N1CCOCC1)/C(Cl)=C(\Cl)[N+](=O)[O-]`, the TGI in [1] was 36.1 µM; in [2], 50.8 µM; in experiment [3], 13.3 µM; in [4] it was 96.8 µM; in [6], 54.2 µM; in experiment [8], 32.2 µM. The values for the TGI in experiment [9], in experiment [11] and in [10] were 5.27 µM, 4.39 µM and 10.5 µM, respectively.
On to `S=C(Nc1cccc(Cl)c1)Nc1ccccn1`, for which the TGI in experiment [2], in experiment [3], in experiment [4], in [5], in [6] and in [7] was more than 100 µM each time. For the same compound, the TGI in experiment [8], in [9], in experiment [11] and in experiment [10] was more than 100 µM in each case.
